Source: US20240124465A1, “MOLECULES AND METHODS RELATED TO TREATMENT OF DISORDERS ASSOCIATED WITH JAK-2 SIGNALING DYSFUNCTION” (ST. JUDE CHILDREN'S RESEARCH HOSPITAL, priority 2020, published 2024)

Tests used:
Assay type in all cases: cell-based
GSPT1 = target: T1, GSPT1 (Homo sapiens, UniProt P15170); assay: Western blot assay, GSPT1 neosubstrate degradation; conditions: MHHCALL4; 100 nM, 24 h; MHH-CALL-4 cells; vehicle control = 100%
T1 construct: endogenous in cells; host or cells: MHH-CALL-4
T1 sequence (P15170 whole entry): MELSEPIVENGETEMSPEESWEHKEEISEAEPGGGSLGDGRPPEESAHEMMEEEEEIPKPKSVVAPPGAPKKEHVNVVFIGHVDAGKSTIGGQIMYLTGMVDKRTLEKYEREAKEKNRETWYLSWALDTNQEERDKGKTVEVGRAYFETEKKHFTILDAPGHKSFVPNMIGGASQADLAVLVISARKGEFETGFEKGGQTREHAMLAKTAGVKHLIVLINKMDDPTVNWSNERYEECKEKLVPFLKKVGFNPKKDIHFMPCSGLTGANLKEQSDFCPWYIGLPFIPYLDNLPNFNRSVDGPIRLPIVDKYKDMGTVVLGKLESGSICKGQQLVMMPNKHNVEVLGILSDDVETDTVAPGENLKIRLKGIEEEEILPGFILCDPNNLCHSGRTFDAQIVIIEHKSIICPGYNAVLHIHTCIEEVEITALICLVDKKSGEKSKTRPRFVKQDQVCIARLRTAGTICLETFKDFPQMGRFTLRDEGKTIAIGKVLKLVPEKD
Method in brief: (§1)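 MHH-CALL-4 cells were lysed in RIPA buffer with protease inhibitors, and 10-20 μg total protein per lane was resolved on 4%-12% Bis-Tris gels and immunoblotted. Target band signal was normalized to ACBT and expressed relative to vehicle control set at 100%.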

JAK2 = assay: Western blot assay, JAK2 protein degradation; conditions: MHH-CALL-4 cells, vehicle control = 100%
Method in brief: as §1

IKZF1 = target: T2, IKZF1 (Homo sapiens, UniProt Q13422); assay: Western blot assay, IKZF1 neosubstrate degradation; conditions: MHH-CALL-4 cells, vehicle control = 100%
T2 construct: endogenous in cells; host or cells: MHH-CALL-4
T2 sequence (Q13422 whole entry): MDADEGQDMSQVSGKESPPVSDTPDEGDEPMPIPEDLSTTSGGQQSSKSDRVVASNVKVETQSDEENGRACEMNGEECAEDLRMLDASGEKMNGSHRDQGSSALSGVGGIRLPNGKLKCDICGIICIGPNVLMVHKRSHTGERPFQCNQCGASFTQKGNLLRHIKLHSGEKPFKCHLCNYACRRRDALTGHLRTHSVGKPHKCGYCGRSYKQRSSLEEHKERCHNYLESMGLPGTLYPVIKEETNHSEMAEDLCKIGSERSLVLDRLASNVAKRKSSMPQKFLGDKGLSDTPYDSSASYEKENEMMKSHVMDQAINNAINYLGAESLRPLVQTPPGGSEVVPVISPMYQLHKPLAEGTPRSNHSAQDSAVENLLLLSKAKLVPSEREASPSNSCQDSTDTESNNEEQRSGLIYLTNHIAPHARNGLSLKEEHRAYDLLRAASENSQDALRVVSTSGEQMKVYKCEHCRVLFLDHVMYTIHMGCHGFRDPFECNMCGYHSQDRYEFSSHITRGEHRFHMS
Description: (§2) Western blot assay: MHH-CALL-4 Cells were washed twice with ice-cold PBS and lysed in RIPA lysis buffer (Sigma) freshly supplemented with Halt™ Protease Inhibitor Cocktail (ThermoFisher) for 15 minutes on ice. The cell pellet was removed by centrifugation at 13,000 g at 4° C. for 15 minutes. Protein concentration was measured by BCA assay (Thermo Fisher Scientific). Proteins were denatured in NuPAGE LDS 4× sample buffer supplemented with reducing agents (Invitrogen). Typically, 10-20 μg of total protein was loaded per lane on a 4%-12% NUPAGE Bis-Tris gradient gel (Invitrogen) and analyzed by standard immunoblotting and imaged using Li—COR Odyssey CLx (LI-COR Biotechnology, Lincoln, NE). To access the protein degradation, the signal of target protein was normalized by the signal of ACBT and the signal of vehicle control was set as 100%. Primary antibodies used were: JAK1 (Cell Signaling #3332S), JAK2 (#3230S), JAK3 (#8827S), TYK2 (#9312S), GSPT1 (#14980S), CRBN (#71810S), IKZF1 (Santa Cruz Biotechnology, SC-398265) and ACBT (Santa Cruz Biotechnology, SC-47778).

JAK3 = target: T3, JAK3 (Homo sapiens, UniProt P52333); assay: Western blot assay, JAK3 protein degradation; conditions: MHHCALL4; 100 nM, 24 h; MHH-CALL-4 cells; vehicle control = 100%; read-out: Target Protein Degradation (% remaining at 100 nM, 24 h) JAK3
T3 construct: endogenous in cells; host or cells: MHH-CALL-4
T3 sequence (P52333 1-1124): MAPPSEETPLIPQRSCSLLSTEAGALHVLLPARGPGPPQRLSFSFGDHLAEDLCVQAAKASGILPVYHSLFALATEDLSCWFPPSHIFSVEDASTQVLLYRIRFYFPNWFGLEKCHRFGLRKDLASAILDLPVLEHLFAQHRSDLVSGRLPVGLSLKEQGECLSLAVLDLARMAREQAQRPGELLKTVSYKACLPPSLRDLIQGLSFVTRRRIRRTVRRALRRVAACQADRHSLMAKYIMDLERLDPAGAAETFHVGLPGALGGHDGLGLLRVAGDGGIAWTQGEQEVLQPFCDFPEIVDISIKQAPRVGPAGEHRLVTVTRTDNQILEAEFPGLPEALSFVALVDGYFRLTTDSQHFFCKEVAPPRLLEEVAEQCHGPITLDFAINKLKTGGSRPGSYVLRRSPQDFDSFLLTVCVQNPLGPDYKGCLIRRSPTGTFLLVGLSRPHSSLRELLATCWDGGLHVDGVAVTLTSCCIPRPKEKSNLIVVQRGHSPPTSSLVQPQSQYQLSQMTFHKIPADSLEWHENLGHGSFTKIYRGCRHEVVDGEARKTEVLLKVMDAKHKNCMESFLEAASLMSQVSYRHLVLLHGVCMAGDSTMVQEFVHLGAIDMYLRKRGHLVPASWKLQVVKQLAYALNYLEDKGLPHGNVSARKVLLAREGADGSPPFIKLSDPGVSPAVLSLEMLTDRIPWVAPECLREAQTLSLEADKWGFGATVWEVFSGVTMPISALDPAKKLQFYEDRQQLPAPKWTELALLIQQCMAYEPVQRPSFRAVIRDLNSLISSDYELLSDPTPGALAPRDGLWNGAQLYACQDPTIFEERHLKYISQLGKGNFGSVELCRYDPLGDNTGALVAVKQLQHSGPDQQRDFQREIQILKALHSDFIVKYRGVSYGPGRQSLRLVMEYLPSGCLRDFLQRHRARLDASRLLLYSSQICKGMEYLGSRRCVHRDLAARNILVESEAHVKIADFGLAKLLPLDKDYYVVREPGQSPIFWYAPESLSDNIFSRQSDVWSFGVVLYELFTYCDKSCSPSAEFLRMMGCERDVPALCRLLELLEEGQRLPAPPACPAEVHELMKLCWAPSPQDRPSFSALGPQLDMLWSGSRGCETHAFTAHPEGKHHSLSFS
Method in brief: as §1

MHH-CALL-4 cells = assay: Cytotoxicity assay (resazurin, 72 hours); design: AUC: unit not given beside the values; conditions: for EC50: MHHCALL4, resazurin; for AUC: area under the dose-response curve
Method in brief: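 Cells grown in RPMI1640 with 10% FBS, 2×10⁵ per well, were exposed to pin-transferred compounds in triplicate for 72 h at 37 °C, 5% CO2. Viability was read after 4 h resazurin incubation. Dose-response AUC was calculated per compound; selected data were fitted by non-linear regression.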

JAK1 = target: T4, JAK1 (Homo sapiens, UniProt P23458); assay: Western blot assay, JAK1 protein degradation; conditions: MHH-CALL-4 cells, vehicle control = 100%
T4 construct: endogenous in cells; host or cells: MHH-CALL-4
T4 sequence (P23458 whole entry): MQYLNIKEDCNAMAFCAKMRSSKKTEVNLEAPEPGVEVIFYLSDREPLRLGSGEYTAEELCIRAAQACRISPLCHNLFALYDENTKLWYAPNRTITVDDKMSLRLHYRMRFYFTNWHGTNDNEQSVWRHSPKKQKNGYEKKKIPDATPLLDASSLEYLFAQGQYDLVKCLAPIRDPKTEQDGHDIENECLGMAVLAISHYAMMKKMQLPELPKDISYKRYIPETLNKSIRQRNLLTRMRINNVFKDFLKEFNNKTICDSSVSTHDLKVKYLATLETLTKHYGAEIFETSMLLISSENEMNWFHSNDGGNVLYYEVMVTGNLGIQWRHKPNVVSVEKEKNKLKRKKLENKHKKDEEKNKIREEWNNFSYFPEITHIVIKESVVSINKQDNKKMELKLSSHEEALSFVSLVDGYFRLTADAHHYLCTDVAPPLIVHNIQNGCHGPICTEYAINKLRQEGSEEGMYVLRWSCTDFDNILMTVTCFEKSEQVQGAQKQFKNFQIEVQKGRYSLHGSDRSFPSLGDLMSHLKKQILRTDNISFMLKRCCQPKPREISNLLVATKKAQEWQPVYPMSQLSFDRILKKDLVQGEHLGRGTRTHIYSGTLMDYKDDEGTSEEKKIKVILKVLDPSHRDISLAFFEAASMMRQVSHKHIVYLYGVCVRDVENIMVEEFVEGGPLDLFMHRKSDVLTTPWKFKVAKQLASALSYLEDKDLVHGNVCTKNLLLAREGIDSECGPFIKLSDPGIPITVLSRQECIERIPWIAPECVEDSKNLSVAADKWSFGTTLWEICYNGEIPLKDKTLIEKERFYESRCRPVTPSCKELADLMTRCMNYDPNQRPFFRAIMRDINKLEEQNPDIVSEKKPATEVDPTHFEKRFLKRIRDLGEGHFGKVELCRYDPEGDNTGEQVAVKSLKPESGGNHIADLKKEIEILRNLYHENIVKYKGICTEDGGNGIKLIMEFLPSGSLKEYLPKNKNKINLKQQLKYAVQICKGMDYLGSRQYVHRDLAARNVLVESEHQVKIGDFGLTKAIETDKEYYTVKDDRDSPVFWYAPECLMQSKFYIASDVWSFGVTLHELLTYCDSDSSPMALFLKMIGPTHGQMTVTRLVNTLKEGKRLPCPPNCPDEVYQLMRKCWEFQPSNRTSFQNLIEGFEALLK
Method in brief: as §1

TYK2 = target: T5, TYK2 (Homo sapiens, UniProt P29597); assay: Western blot assay, TYK2 protein degradation; conditions: MHH-CALL-4 cells, vehicle control = 100%
T5 construct: endogenous in cells; host or cells: MHH-CALL-4
T5 sequence (P29597 whole entry): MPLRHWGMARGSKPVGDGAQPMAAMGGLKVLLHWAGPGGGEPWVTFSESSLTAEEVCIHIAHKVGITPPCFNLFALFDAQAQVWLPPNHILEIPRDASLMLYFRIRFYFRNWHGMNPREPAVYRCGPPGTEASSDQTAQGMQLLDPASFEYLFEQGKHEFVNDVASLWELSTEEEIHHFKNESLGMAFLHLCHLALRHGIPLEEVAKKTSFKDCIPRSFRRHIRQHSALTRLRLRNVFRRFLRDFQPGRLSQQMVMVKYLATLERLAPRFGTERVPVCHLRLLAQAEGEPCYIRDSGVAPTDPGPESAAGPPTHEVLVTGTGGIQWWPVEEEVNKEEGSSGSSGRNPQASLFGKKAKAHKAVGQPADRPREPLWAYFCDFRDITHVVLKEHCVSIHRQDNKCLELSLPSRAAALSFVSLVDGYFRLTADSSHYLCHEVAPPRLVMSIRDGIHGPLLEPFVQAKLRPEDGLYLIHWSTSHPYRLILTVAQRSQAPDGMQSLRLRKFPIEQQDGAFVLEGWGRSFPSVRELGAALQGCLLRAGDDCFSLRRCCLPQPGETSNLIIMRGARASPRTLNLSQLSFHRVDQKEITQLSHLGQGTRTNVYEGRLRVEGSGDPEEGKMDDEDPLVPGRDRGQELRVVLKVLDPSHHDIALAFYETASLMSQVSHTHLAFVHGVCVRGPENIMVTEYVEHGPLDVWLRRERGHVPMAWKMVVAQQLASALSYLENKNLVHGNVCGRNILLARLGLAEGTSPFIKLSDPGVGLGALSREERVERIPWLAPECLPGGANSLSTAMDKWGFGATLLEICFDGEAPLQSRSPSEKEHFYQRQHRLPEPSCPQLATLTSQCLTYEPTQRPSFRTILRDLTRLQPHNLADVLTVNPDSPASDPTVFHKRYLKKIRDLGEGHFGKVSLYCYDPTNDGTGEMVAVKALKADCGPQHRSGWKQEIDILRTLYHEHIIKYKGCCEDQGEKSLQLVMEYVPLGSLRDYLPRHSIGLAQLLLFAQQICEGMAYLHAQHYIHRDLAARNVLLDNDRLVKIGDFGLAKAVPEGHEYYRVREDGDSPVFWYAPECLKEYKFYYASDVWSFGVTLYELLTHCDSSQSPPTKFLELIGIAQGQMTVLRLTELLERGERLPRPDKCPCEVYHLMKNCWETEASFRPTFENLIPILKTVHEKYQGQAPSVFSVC
Description: as §2

SMILES | remaining activity at 0.1 µM (GSPT1) [%] | Target Protein Degradation (% remaining at 100 nM, 24 h) JAK2 (JAK2) [% remaining] | Neosubstrate Degradation (% remaining at 100 nM, 24 h) IKZF1 (IKZF1) [% remaining] | remaining activity at 0.1 µM (JAK3) [%] | EC50 (MHH-CALL-4 cells) [nM] | AUC (MHH-CALL-4 cells) | Target Protein Degradation (% remaining at 100 nM, 24 h) JAK1 (JAK1) [% remaining] | Target Protein Degradation (% remaining at 100 nM, 24 h) TYK2 (TYK2) [% remaining]
CCS(=O)(=O)N1CC(CC#N)(n2cc(-c3nc(Nc4ccc(C(=O)NCCCN5CCN(c6ccc(C7CCC(=O)NC7=O)cc6)CC5)cc4)nc4[nH]ccc34)cn2)C1 (stereo not shown) [Compound 10] | 109 | 25 | 87 | 46 | 2580 | 114 | 86 | 118
CCS(=O)(=O)N1CC(CC#N)(n2cc(-c3nc(Nc4ccc(C(=O)NCCNC(=O)COc5ccc(C6CCC(=O)NC6=O)cc5)cc4)nc4[nH]ccc34)cn2)C1 (stereo not shown) [Compound 17] | 110 | 120 | 96 | 102 | > 784 | – | 105 | 88
CCS(=O)(=O)N1CC(CC#N)(n2cc(-c3nc(Nc4ccc(C(=O)NCCCNC(=O)COc5ccc(C6CCC(=O)NC6=O)cc5)cc4)nc4[nH]ccc34)cn2)C1 (stereo not shown) [Compound 18] | 117 | 82 | 105 | 80 | > 812 | 95 | 83 | 122
CCS(=O)(=O)N1CC(CC#N)(n2cc(-c3nc(Nc4ccc(C(=O)NCCCCOc5cccc(C6CCC(=O)NC6=O)c5)cc4)nc4[nH]ccc34)cn2)C1 (stereo not shown) [Compound 41, 4-((4-(1-(3-(cyanomethyl)-1-(ethylsulfonyl)azetidin-3-yl)-1H-pyrazol-4-yl)-7H-pyrrolo[2,3-d]pyrimidin-2-yl)amino)-N-(4-(3-(2,6-dioxopiperidin-3-yl)phenoxy)butyl)benzamide] | – | 28 | – | 46 | 51.2 | 202 | 97 | 125
CCS(=O)(=O)N1CC(CC#N)(n2cc(-c3nc(Nc4ccc(C(=O)NCCCCOc5ccc(C6CCC(=O)NC6=O)cc5)cc4)nc4[nH]ccc34)cn2)C1 (stereo not shown) [Compound 5] | 71 | 22 | 79 | 65 | 2.2 | 124 | 124 | 142
CCS(=O)(=O)N1CC(CC#N)(n2cc(-c3nc(Nc4ccc(C(=O)NCCCCOc5ccc(C6CCC(=O)N(C)C6=O)cc5)cc4)nc4[nH]ccc34)cn2)C1 (stereo not shown) [Compound 47, 4-((4-(1-(3-(cyanomethyl)-1-(ethylsulfonyl)azetidin-3-yl)-1H-pyrazol-4-yl)-7H-pyrrolo[2,3-d]pyrimidin-2-yl)amino)-N-(4-(4-(1-methyl-2,6-dioxopiperidin-3-yl)phenoxy)butyl)benzamide] | 86 | 128 | – | 101 | 3.35 | – | 114 | 89
CCS(=O)(=O)N1CC(CC#N)(n2cc(-c3nc(Nc4ccc(C(=O)NCCN5CCN(c6ccc(C7CCC(=O)NC7=O)cc6)CC5)cc4)nc4[nH]ccc34)cn2)C1 (stereo not shown) [Compound 37, 4-((4-(1-(3-(cyanomethyl)-1-(ethylsulfonyl)azetidin-3-yl)-1H-pyrazol-4-yl)-7H-pyrrolo[2,3-d]pyrimidin-2-yl)amino)-N-(2-(4-(4-(2,6-dioxopiperidin-3-yl)phenyl)piperazin-1-yl)ethyl)benzamide] | – | 26 | – | 58 | 2.7 | 149 | 120 | 121
